The values that follow come from patent publication US10905122B2, “Use of tetrazolinones for combating resistant phytopathogenic fungi on cereals” (BASF SE, priority 2016, dated 2021).

Each structure is given as a SMILES string.

Common to all, as to assay type: cell-based
Assay [1] concerns sensitive isolate of Septoria tritici. Put plainly: Microtiter test against leaf blotch on wheat, sensitive isolate of Septoria tritici. Particulars: 63 ppm, absorption at 405 nm 7 days after inoculation, 18° C. How it is done: (§1) Compound I according to the present invention is formulated separately as a stock solution having a concentration of 10000 ppm in dimethyl sulfoxide.
(§2) The stock solution of compound I according to the present invention was mixed according to the ratio, pipetted onto a micro titer plate and diluted with water to the stated concentrations. A spore suspension of a sensitive and a QOI resistant isolate of Septoria tritici in an aqueous biomalt or yeast-bactopeptone-glycerine solution was then added. The plates were placed in a water vapor-saturated chamber at a temperature of 18° C. Using an absorption photometer, the MTPs were measured at 405 nm 7 days after the inoculation.
(§3) Compound I according to the present invention and compound 1-213 from prior art (WO2013/092224) were formulated separately as a stock solution having a concentration of 10000 ppm in dimethyl sulfoxide. The stock solutions of compound I according to the present invention and compound 1-213 from prior art (WO2013/092224) were mixed according to the ratio, pipetted onto a micro titer plate and diluted with water to the stated concentrations. A spore suspension of a sensitive and a QOI resistant isolate of Septoria tritici in an aqueous biomalt or yeast-bactopeptone-glycerine solution was then added. […] Using an absorption photometer, the MTPs were measured at 405 nm 7 days after the inoculation.

Assay [2] has as its system QOI resistant isolate of Septoria tritici. Put plainly: Microtiter test against leaf blotch on wheat, QOI resistant isolate of Septoria tritici. The note with it: 63 ppm, absorption at 405 nm 7 days after inoculation, 18° C. On the procedure:
as §1, §2, §3

In assay [3] the test system is sensitive isolate of Pyrenophora teres. Put plainly: Microtiter test against net blotch, sensitive isolate of Pyrenophora teres. Particulars: Example 1B; 63 ppm; absorption at 405 nm 7 days after inoculation; 18° C.
From the text: as §1
(§4) The stock solution of compound I according to the present invention was mixed according to the ratio, pipetted onto a micro titer plate (MTP) and diluted with water to the stated concentrations. A spore suspension of a sensitive and a QOI resistant isolate of Pyrenophora teres in an aqueous biomalt or yeast-bactopeptone-glycerine solution was then added. The plates were placed in a water vapor-saturated chamber at a temperature of 18° C. Using an absorption photometer, the MTPs were measured at 405 nm 7 days after the inoculation.

Assay [4] has as its system QOI resistant isolate of Pyrenophora teres. Put plainly: Microtiter test against net blotch, QOI resistant isolate of Pyrenophora teres. The note with it: Example 1B; 63 ppm; absorption at 405 nm 7 days after inoculation; 18° C.
From the text: as §1, §4

As for `Cc1cccc(-n2nnn(C)c2=O)c1COc1ccn(-c2ccc(Cl)cc2)n1` [compound I, 1-[2-[[1-(4-chlorophenyl)pyrazol-3-yl]oxymethyl]-3-methyl-phenyl]-4-methyl-tetrazol-5-one], the “Growth (%) sensitive isolate of Septoria tritici” value in assay [1] (Example 1A) and in assay [1] (Example 2 comparative) was 0% throughout. The “Growth (%) QOI resistant isolate of Septoria tritici” value in assay [2] (Example 1A) and in assay [2] (Example 2 comparative) was 3% each time. Also, the “Growth (%) sensitive isolate of Pyrenophora teres.” value in assay [3] came out at 6%. In addition, in assay [4], the “Growth (%) QOI resistant isolate of Pyrenophora teres” value is on record as 6%.
